In patent US20240384268A1, “Oligonucleotides” (Hudson Institute of Medical Research, priority 2021, published 2024):

Biological target: T1, human TLR9 (Homo sapiens, UniProt Q9NR96)
T1 construct: HA; host or cells: 293XL-hTLR9-HA (HEK293)
T1 sequence (Q9NR96 26-1032): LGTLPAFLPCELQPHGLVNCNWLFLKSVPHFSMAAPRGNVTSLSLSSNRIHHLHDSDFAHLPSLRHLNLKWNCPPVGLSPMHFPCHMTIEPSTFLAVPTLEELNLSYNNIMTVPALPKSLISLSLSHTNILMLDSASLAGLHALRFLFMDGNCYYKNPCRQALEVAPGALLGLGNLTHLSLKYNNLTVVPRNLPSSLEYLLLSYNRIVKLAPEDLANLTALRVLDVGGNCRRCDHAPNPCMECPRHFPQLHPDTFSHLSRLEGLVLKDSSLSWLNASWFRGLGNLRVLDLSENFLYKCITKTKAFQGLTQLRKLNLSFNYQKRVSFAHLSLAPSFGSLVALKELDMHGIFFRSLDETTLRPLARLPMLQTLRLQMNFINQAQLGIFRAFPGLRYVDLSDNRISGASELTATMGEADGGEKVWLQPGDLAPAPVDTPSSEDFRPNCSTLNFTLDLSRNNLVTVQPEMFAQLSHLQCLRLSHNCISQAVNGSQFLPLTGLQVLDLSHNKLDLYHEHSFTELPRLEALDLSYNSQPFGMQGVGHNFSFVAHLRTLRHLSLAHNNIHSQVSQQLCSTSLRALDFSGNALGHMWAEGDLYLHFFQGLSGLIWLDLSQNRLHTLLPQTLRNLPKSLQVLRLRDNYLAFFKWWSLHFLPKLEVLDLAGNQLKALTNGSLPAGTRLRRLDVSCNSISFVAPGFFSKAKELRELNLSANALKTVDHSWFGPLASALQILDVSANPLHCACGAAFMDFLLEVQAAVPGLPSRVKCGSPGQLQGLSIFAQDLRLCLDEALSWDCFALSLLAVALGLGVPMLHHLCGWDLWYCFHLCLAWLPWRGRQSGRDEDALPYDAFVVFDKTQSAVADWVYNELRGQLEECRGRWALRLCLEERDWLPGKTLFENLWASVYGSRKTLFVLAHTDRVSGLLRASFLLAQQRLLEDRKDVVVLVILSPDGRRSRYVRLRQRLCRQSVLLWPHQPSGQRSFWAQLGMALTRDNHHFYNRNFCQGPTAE
Experiment: HEK-TLR9 NF-κB-luciferase reporter, ODN2006 stimulation
Assay type: cell-based
Conditions: averaged NF-κB-Luciferase relative to ODN2006 condition; for TLR9 100 nM: MOE-modified ASO at 100 nM; for TLR9 500 nM: MOE-modified ASO at 500 nM

Row | Sequence | TLR9 100 nM | TLR9 500 nM
1 | AACACTTCGTGGGGTCCTTT (antisense; 2'-MOE modified, pattern not given here) [HPRT-664 MOE] | 0.426 | 0.402
2 | AATCCGCCCAAAGGGAACTG (antisense; 2'-MOE modified, pattern not given here) [HPRT-1027 MOE] | 0.591 | 0.591
3 | ACAACCCCTTTCACCATCCC (antisense; 2'-MOE modified, pattern not given here) [MB21D1-689 MOE] | 0.785 | 0.499
4 | ACAGTGTTGAGATACTCGGG (antisense; 2'-MOE modified, pattern not given here) [EGFR-3652 MOE] | 0.436 | 0.194
5 | ACCCACTTGGCAGACCATCA (antisense; 2'-MOE modified, pattern not given here) [CTNN2B-1575 MOE] | 0.725 | 0.556
6 | ACTGACTGTCTTGAGGGTTC (antisense; 2'-MOE modified, pattern not given here) [MB21D1-1483 MOE] | 0.424 | 0.291
7 | AGATCTGGCAGCCCATCAAC (antisense; 2'-MOE modified, pattern not given here) [CTNN2B-2516 MOE] | 0.607 | 0.268
8 | AGGTCTTGGCTTCGTGGAGC (antisense; 2'-MOE modified, pattern not given here) [MB21D1-522 MOE] | 0.568 | 0.280
9 | ATCCAACACTTCGTGGGGTC (antisense; 2'-MOE modified, pattern not given here) [HPRT-668 MOE] | 0.287 | 0.618
10 | ATGTCCCCTGTTGACTGGTC (antisense; 2'-MOE modified, pattern not given here) [HPRT-489 MOE] | 0.968 | 0.953
11 | ATGTCCCGCCACTGGATGCT (antisense; 2'-MOE modified, pattern not given here) [EGFR-727 MOE] | 0.801 | 0.423
12 | ATGTGATGGCCTCCCATCTC (antisense; 2'-MOE modified, pattern not given here) [HPRT-333 MOE] | 0.900 | 0.918
13 | CAACACTTCGTGGGGTCCTT (antisense; 2'-MOE modified, pattern not given here) [HPRT-665 MOE] | 0.858 | 0.619
14 | CAAGGCCCTTCGCACTTCTT (antisense; 2'-MOE modified, pattern not given here) [EGFR-1225 MOE] | 0.624 | 0.712
15 | CAATGTGATGGCCTCCCATC (antisense; 2'-MOE modified, pattern not given here) [HPRT-335 MOE] | 0.614 | 0.412
16 | CACCCACTTGGCAGACCATC (antisense; 2'-MOE modified, pattern not given here) [CTNN2B-1576 MOE] | 0.665 | 0.677
17 | CAGATAGCACCTTCAGCACT (antisense; 2'-MOE modified, pattern not given here) [CTNN2B-1294 MOE] | 0.583 | 0.484
18 | CCAACACTTCGTGGGGTCCT (antisense; 2'-MOE modified, pattern not given here) [HPRT-666 MOE] | 0.612 | 0.600
19 | CGTGTCTGGAAGCTTCCTTT (antisense; 2'-MOE modified, pattern not given here) [CTNN2B-808 MOE] | 0.568 | 0.259
20 | CTCTTGAAGCATCGTATCAC (antisense; 2'-MOE modified, pattern not given here) [CTNN2B-3648 MOE] | 0.721 | 0.472
21 | CTGTGATCTTGACATGCTGC (antisense; 2'-MOE modified, pattern not given here) [EGFR-2790 MOE] | 0.506 | 0.298
22 | CTTACTTTCCGAGGTGTCCA (antisense; 2'-MOE modified, pattern not given here) [CAMSAP1-1739 MOE] | 0.647 | 0.531

Row | Sequence | TLR9 100 nM | TLR9 500 nM
23 | GAACCACGTCTGCTCTAACA (antisense; 2'-MOE modified, pattern not given here) [CAMSAP1-1635 MOE] | 0.588 | 0.466
24 | GAGGTCTTGGCTTCGTGGAG (antisense; 2'-MOE modified, pattern not given here) [MB21D1-523 MOE] | 0.888 | 0.650
25 | GAGTCTCTGGAGCTTCCTCT (antisense; 2'-MOE modified, pattern not given here) [CAMSAP1-2456 MOE] | 0.594 | 0.127
26 | GATGCTCCTCGGTCTCCCTT (antisense; 2'-MOE modified, pattern not given here) [CAMSAP1-1850 MOE] | 0.792 | 0.196
27 | GATGGCCTCCCATCTCCTTC (antisense; 2'-MOE modified, pattern not given here) [HPRT-329 MOE] | 0.662 | 1.268
28 | GCCGCTTTTCTGTCTGGTTC (antisense; 2'-MOE modified, pattern not given here) [CTNN2B-311 MOE] | 0.684 | 1.018
29 | GCGACTATACGCGCAATATG (antisense; 2'-MOE modified, pattern not given here) [NC5 2′MOE] | 0.395 | 0.035
30 | GCGGAGGTCTTGGCTTCGTG (antisense; 2'-MOE modified, pattern not given here) [MB21D1-526 MOE] | 0.682 | 0.246
31 | GCGTATTATAGCCGATTAAC (antisense; 2'-MOE modified, pattern not given here) [NC1 2′MOE] | 0.460 | 0.064
32 | GCGTGTCTGGAAGCTTCCTT (antisense; 2'-MOE modified, pattern not given here) [CTNN2B-809 MOE] | 0.263 | 0.229
33 | GCTTCAGGCGCTGCCTTGCC (antisense; 2'-MOE modified, pattern not given here) [CAMSAP1-2709 MOE] | 0.833 | 0.824
34 | GGAGATTTCAGAGCAGCTTC (antisense; 2'-MOE modified, pattern not given here) [EGFR-4885 MOE] | 0.541 | 0.381
35 | GGAGCTTCGAGGCCCCAGGC (MOE modified, pattern not given here) [MB21D1-616 MOE] | 0.588 | 0.168
36 | GGAGGTCTTGGCTTCGTGGA (antisense; 2'-MOE modified, pattern not given here) [MB21D1-524 MOE] | 0.466 | 0.342
37 | GGCATCCACCACGTCGTCCA (antisense; 2'-MOE modified, pattern not given here) [EGFR-3266 MOE] | 0.742 | 0.481
38 | GGGAAAGGTTATGCAAGGTC (antisense; 2'-MOE modified, pattern not given here) [CTNN2B-916 MOE] | 0.521 | 0.505
39 | GGTCCATACCCAAGGCATCC (antisense; 2'-MOE modified, pattern not given here) [CTNN2B-2446 MOE] | 0.687 | 0.453
40 | GGTGGTCCACAACCCCTTTC (antisense; 2'-MOE modified, pattern not given here) [MB21D1-697 MOE] | 0.456 | 0.071
41 | GGTGGTGGCCACCCATCTCA (antisense; 2'-MOE modified, pattern not given here) [CTNN2B-2479 MOE] | 0.761 | 0.317
42 | GGTGTCCTTGCACGTGGCTT (antisense; 2'-MOE modified, pattern not given here) [EGFR-1016 MOE] | 1.064 | 0.714
43 | GTCCACATCCTGTGGCTCGT (antisense; 2'-MOE modified, pattern not given here) [CAMSAP1-2906 MOE] | 0.559 | 0.254
